Each block holds one compound with its values, some of them ahead of it.
Biological target: T1, human FSH receptor (Homo sapiens, UniProt P23945)
T1 construct: expressed in transfected cells
T1 sequence (P23945 18-695): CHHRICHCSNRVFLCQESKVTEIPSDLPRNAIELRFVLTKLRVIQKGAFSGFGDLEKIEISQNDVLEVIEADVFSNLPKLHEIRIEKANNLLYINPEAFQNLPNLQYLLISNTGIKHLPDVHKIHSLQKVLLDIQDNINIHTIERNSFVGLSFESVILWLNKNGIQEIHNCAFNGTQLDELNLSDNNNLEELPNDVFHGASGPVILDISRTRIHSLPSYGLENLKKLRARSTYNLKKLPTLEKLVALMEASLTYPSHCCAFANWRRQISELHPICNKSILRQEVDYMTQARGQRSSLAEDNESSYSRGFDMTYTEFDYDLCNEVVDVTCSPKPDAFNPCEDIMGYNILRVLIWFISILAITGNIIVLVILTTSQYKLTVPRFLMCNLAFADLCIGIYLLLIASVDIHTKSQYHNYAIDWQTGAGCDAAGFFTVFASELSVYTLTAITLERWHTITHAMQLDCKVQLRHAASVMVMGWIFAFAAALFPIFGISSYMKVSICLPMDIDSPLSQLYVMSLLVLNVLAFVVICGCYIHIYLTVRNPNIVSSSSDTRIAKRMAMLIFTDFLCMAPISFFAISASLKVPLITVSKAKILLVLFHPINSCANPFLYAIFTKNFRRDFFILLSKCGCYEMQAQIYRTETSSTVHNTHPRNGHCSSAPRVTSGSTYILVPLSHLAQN
Experiment: hFSHRago (CHO luc): agonistic activity at the human FSH receptor expressed in CHO cells, CRE-luciferase reporter
Assay type: cell-based
Settings: CHO cells stably transfected with human FSH receptor and CRE/luciferase reporter; 4 hours of incubation

Structure (SMILES): COc1cc2c(cc1OC(C)C)-c1c(-c3cccs3)cc(C(=O)N3CCCN(C(=O)C4CCC4)CC3)n1CC2 [Example 7c, (4-Cyclobutanecarbonyl-[1,4]diazepan-1-yl)-(9-isopropoxy-8-methoxy-1-thiophen-2-yl-5,6-dihydro-pyrrolo[2,1-α]isoquinolin-3-yl)-methanone]
EC50: 1.7 nM

Structure (SMILES): COc1cc2c(cc1OC(C)C)-c1c(-c3cccs3)cc(C(=O)NC3C[C@@H]4CN(C(C)=O)C[C@@H]4C3)n1CC2 (stereo partly drawn) [Example 23, 9-Isopropoxy-8-methoxy-1-thiophen-2-yl-5,6-dihydro-pyrrolo[2,1-α]isoquinoline-3-carboxylic acid (2-acetyl-octahydro-cyclopenta[c]pyrrol-5(endo)-yl)-amide]
EC50: 787 nM

Structure (SMILES): COc1cc2c(cc1N1CCOCC1)-c1c(-c3cccnc3)cc(C(=O)N(C)C(C)(C)C)n1CC2 [Example 57, 8-Methoxy-9-morpholin-4-yl-1-pyridin-3-yl-5,6-dihydro-pyrrolo[2,1-α]isoquinoline-3-carboxylic acid tert-butyl-methyl-amide; trifluoro acetic acid]
EC50: 276 nM

Structure (SMILES): COc1cc2c(cc1OCC1CCCO1)-c1c(-c3cccs3)cc(C(=O)N3CCCN(C(C)=O)CC3)n1CC2 (stereo not drawn) [Example 78, 1-{4-[8-Methoxy-9-(tetrahydro-furan-2-ylmethoxy)-1-thiophen-2-yl-5,6-dihydro-pyrrolo[2,1-α]isoquinoline-3-carbonyl]-perhydro-1,4-diazepin-1-yl}-ethanone]
EC50: 96.2 nM

Structure (SMILES): COc1cc2c(cc1OC(C)C)-c1c(-c3cccs3)cc(C(=O)C(C)N3CCOCC3)n1CC2 (stereo not drawn) [Example 48, 1-(9-Isopropoxy-8-methoxy-1-thiophen-2-yl-5,6-dihydro-pyrrolo[2,1-α]isoquinolin-3-yl)-2-morpholin-4-yl-propan-1-one]
EC50: 89.4 nM

Structure (SMILES): COc1cc2c(cc1NC(=O)CN(C)C)-c1c(-c3cccs3)cc(C(=O)N(C)C(C)(C)C)n1CC2 [Example 96, 9-(2-Dimethylamino-acetylamino)-8-methoxy-1-thiophen-2-yl-5,6,6 a,10a-tetrahydro-pyrrolo[2,1-α]isoquinoline-3-carboxylic acid tert-butyl-methyl-amide]
EC50: 2.8 nM

Structure (SMILES): COC(=O)NCCOc1cc2c(cc1OC)CCn1c(C(=O)N(C)C(C)(C)C)cc(-c3cccs3)c1-2 [Example 66, {2-[3-(tert-Butyl-methyl-carbamoyl)-8-methoxy-1-thiophen-2-yl-5,6-dihydro-pyrrolo[2,1-α]isoquinolin-9-yloxy]-ethyl}-carbamic acid methyl ester]
EC50: 31.3 nM

Structure (SMILES): COc1cc2c(cc1C#N)-c1c(-c3cccs3)cc(C(=O)N(C)C(C)(C)C)n1CC2 [Example 83, 9-Cyano-8-methoxy-1-thiophen-2-yl-5,6-dihydro-pyrrolo[2,1--α]isoquinoline-3-carboxylic acid tert-butyl-methyl-amide]
EC50: 4.3 nM

Structure (SMILES): COc1cc2c(cc1OC)-c1c(C3=CCCCC3)cc(C(=O)N(C)C(C)(C)C)n1CC2 [Example 110, 1-Cyclohex-1-enyl-8,9-dimethoxy-5,6-dihydro-pyrrolo[2,1-α]isoquinoline-3-carboxylic acid tert-butyl-methyl-amide]
EC50: 76.5 nM

Structure (SMILES): COc1cc2c(cc1OC(C)C)-c1c(-c3cccs3)cc(C(=O)CC(C)(C)C)n1CC2 [Example 45]
EC50: 65.1 nM

Structure (SMILES): COc1cc2c(cc1OC(C)C)-c1c(-c3cccs3)cc(C(=O)N3CC4CC(CN(C(C)=O)C4)C3)n1CC2 [Example 20, 1-[7-(9-isopopoxy-8-methoxy-1-thiophen-2-yl-5,6-dihydro-pyrrolo[2,1-α]isoquinoline-3-carbonyl)-3,7-diaza-bicyclo[3.3.1]non-3-yl]-ethanone]
EC50: 8.2 nM

Structure (SMILES): COc1cc2c(cc1OCCC(C)C)-c1c(-c3cccs3)cc(C(=O)N3CCCN(C(C)=O)CC3)n1CC2 [Example 80, 1-{4-[8-Methoxy-9-(3-methyl-butoxy)-1-thiophen-2-yl-5,6-dihydro-pyrrolo[2,1-α]isoquinoline-3-carbonyl]-perhydro-1,4-diazepin-1-yl}-ethanone]
EC50: 101 nM

Structure (SMILES): COc1cc2c(cc1OC(F)F)-c1c(-c3nccs3)cc(C(=O)N(C)C(C)(C)C)n1CC2 [Example 113, 9-Difluoromethoxy-8-methoxy-1-thiazol-2-yl-5,6-dihydro-pyrrolo[2,1-α]isoquinoline-3-carboxylic acid tert-butyl-methyl-amide]
EC50: 39.6 nM

Structure (SMILES): COc1cc2c(cc1C=C(C)C)-c1c(-c3nccs3)cc(C(=O)N(C)C(C)(C)C)n1CC2 [Example 59, 8-Methoxy-9-(2-methyl-propenyl)-1-thiazol-2-yl-5,6-dihydro-pyrrolo[2,1-α]isoquinoline-3-carboxylic acid tert-butyl-methyl-amide]
EC50: 2.6 nM

Structure (SMILES): CCCCN1CCN(C(=O)c2cc(-c3cccs3)c3n2CCc2cc(OC)c(OCC(C)(C)O)cc2-3)CCC1=O [Example 14d, 4-Butyl-1-[9-(2-hydroxy-2-methyl-propoxy)-8-methoxy-1-thiophen-2-yl-5,6-dihydro-pyrrolo[2,1-α]isoquinoline-3-carbonyl]-[1,4]diazepan-5-one]
EC50: 1.5 nM

Structure (SMILES): COc1cc2c(cc1-c1cn[nH]c1)-c1c(-c3cccs3)cc(C(=O)N(C)C(C)(C)C)n1CC2 [Example 55, 8-Methoxy-9-(1H-pyrazol-4-yl)-1-thiophen-2-yl-5,6-dihydro-pyrrolo[2,1-α]isoquinoline-3-carboxylic acid tert-butyl-methyl-amide]
EC50: 1.1 nM

Structure (SMILES): CN(C(=O)c1cc(-c2cccs2)c2n1CCc1ccc(N3CCOC3=O)cc1-2)C(C)(C)C [Example 89, 9-(2-Oxo-oxazolidin-3-yl)-1-thiophen-2-yl-5,6-dihydro-pyrrolo[2,1-α]isoquinoline-3-carboxylic acid tert-butyl-methyl-amide]
EC50: 245 nM

Structure (SMILES): COc1cc2c(cc1OC(C)C)-c1c(-c3cccs3)cc(C(=O)N3CCCN(C(=O)C4(Br)CCC4)CC3)n1CC2 [Example 8, [4-(1-Bromo-cyclobutanecarbonyl)-[1,4]diazepan-1-yl]-(9-isopropoxy-8-methoxy-1-thiophen-2-yl-5,6-dihydro-pyrrolo[2,1-α]isoquinolin-3-yl)-methanone]
EC50: 6.8 nM

Structure (SMILES): CNC(=O)COc1cc2c(cc1OC)CCn1c(C(=O)N(C)C(C)(C)C)cc(-c3cccs3)c1-2 [Example 64, 8-Methoxy-9-methylcarbamoylmethoxy-1-thiophen-2-yl-5,6-dihydro-pyrrolo[2,1-α]isoquinoline-3-carboxylic acid tert-butyl-methyl-amide]
EC50: 3.1 nM

Structure (SMILES): COc1cc2c(cc1OC(C)C)-c1c(-c3cccs3)cc(C(=O)C(C)N(C)C)n1CC2 (stereo not drawn) [Example 47, 2-Dimethylamino-1-(9-isopropoxy-8-methoxy-1-thiophen-2-yl-5,6-dihydro-pyrrolo[2,1-α]isoquinolin-3-yl)-propan-1-one]
EC50: 149 nM

Now from value to compound:

EC50: 2.9 nM
Structure (SMILES): COc1cc2c(cc1OC)-c1c(-c3cccs3)cc(C(=O)N3CCCN(C(=O)C4CCC4)CC3)n1CC2 [Example 111a, (4-Cyclobutanecarbonyl-[1,4]diazepan-1-yl)-(8,9-dimethoxy-1-thiophen-2-yl-5,6-dihydro-pyrrolo[2,1-α]isoquinolin-3-yl)-methanone]

EC50: 42 nM
Structure (SMILES): CCOC(=O)CN(C)C(=O)c1cc(-c2ccsc2)c2n1CCc1cc(OC)c(OC)cc1-2 [Example 119c, [(8,9-Dimethoxy-1-thiophen-3-yl-5,6-dihydro-pyrrolo[2,1-α]isoquinoline-3-carbonyl)-methyl-amino]-acetic acid ethyl ester]

EC50: 11.3 nM
Structure (SMILES): COc1cc2c(cc1Br)-c1c(-c3cccs3)cc(C(=O)N(C)C(C)(C)C)n1CC2 [Example 85a, 9-Bromo-8-methoxy-1-thiophen-2-yl-5,6-dihydro-pyrrolo[2,1--α]isoquinoline-3-carboxylic acid tert-butyl-methyl-amide]

EC50: 111 nM
Structure (SMILES): COc1cc2c(cc1OCCCN)-c1c(-c3cccs3)cc(C(=O)N(C)C(C)(C)C)n1CC2 [Example 70g, 9-(3-Amino-propoxy)-8-methoxy-1-thiophen-2-yl-5,6-dihydro-pyrrolo[2,1-α]iso-quinoline-3-carboxylic acid tert-butyl-methyl-amide]

EC50: 1.3 nM
Structure (SMILES): COc1cc2c(cc1OCCO)-c1c(-c3cccs3)cc(C(=O)N(C)C(C)(C)C)n1CC2 [Example 65d, 9-(2-Hydroxy-ethoxy)-8-methoxy-1-thiophen-2-yl-5,6-dihydro-pyrrolo[2,1-α]iso-quinoline-3-carboxylic acid tert-butyl-methyl-amide]

EC50: 252 nM
Structure (SMILES): COc1cc2c(cc1OC(C)C)-c1c(-c3cccs3)cc(C(=O)N[C@@H]3CCCN(C(=O)C4CCC4)C3)n1CC2 [Example 33c, 9-Isopropoxy-8-methoxy-1-thiophen-2-yl-5,6-dihydro-pyrrolo[2,1-α]isoquinoline-3-carboxylic acid ((R)-1-cyclobutanecarbonyl-piperidin-3-yl)-amide]

EC50: 15 nM
Structure (SMILES): COc1cc2c(cc1OCCOS(C)(=O)=O)-c1c(-c3cccs3)cc(C(=O)N(C)C(C)(C)C)n1CC2 [Example 65e, Methanesulfonic acid 2-[3-(tert-butyl-methyl-carbamoyl)-8-methoxy-1-thiophen-2-yl-5,6-dihydro-pyrrolo[2,1-α]isoquinolin-9-yloxy]-ethyl ester]
